Data: patent US10696692B2, “Amido-benzyl sulfone and sulfoxide derivates” (Forma TM, LLC, priority 2012, dated 2020)
Where two headings read alike, the source gives them in different places.

Experiments:
NAMPT = NAMPT (Homo sapiens (Human), UniProt P43490); experiment: Assay 1: Biochemical Inhibition Assay (NAMPT enzymatic reaction, NMN quantified by mass spectrometry);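 further: recombinant His-tagged human NAMPT preincubated with compound 15 min, then reacted 30 min at rt with 1 µM NAM, 100 µM PRPP, 2.5 mM ATP, NMN product read by RapidFire MS, normalized to L-Cystathionine internal standard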
NAMPT, sequence (P43490 whole entry): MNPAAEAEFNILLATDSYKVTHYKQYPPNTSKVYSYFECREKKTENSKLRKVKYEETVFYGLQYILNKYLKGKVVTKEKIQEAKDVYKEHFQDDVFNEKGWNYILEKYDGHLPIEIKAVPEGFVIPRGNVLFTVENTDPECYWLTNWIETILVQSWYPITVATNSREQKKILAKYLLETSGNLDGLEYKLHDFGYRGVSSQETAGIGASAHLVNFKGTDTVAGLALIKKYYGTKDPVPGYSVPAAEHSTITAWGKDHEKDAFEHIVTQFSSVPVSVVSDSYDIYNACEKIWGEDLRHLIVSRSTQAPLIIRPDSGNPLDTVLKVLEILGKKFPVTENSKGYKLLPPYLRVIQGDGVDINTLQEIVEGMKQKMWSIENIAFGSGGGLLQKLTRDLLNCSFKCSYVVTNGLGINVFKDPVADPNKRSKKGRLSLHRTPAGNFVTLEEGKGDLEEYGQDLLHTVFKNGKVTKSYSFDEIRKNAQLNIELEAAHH

A2780 cells = experiment: Assay 2: In-Vitro Cell Proliferation Assay (A2780 cells, SRB readout, 72 hours); assay type: cell-based; conditions: read-out: Cell Proliferation (IC50);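 further: viable cells counted via sulforhodamine B staining, absorbance at 570 nm, after 72 h exposure at 37 °C, DMSO 0.1% as control, media-only background subtracted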
[1] = Homo sapiens, A2780, 72 h, A2780 cells, 72 hours, SRB

Compound | IC50 (NAMPT; read-out: Biochemical (IC50)) [nM] | IC50 (A2780 cells; [1]) [nM] | IC50 (A2780 cells; A2780 cells, 72 hours, SRB) [nM] | IC50 (NAMPT; Biochemical (IC50)) [nM] | IC50 (A2780 cells; Homo sapiens, A2780, 72 h) [nM]
O=C(NCc1ccc(S(=O)(=O)N2C[C@H]3CCC(F)(F)[C@H]3C2)cc1)c1cnc2[nH]ncc2c1 (racemic) [Example 176, cis-1H-Pyrazolo[3,4-b]pyridine-5-carboxylic acid 4-(4,4-difluoro-hexahydro-cyclopenta[c]pyrrole-2-sulfonyl)-benzylamide] | 37.9 | 22.7 | – | – | –
N#CC1CCN(S(=O)(=O)c2ccc(CNC(=O)c3cc4ccncc4o3)cc2)CC1 [Example 12, Furo[2,3-c]pyridine-2-carboxylic acid 4-(4-cyano-piperidine-1-sulfonyl)-benzylamide] | 26.2 | 186 | – | – | –
O=C(NCc1ccc(S(=O)(=O)N2CCC[C@H](O)C2)cc1)c1cc2ccncc2o1 [Example 51, Furo[2,3-c]pyridine-2-carboxylic acid 4-((S)-3-hydroxy-piperidine-1-sulfonyl)-benzylamide] | 22.2 | – | 39.7 | – | –
CC(=O)N1CC2(C1)CN(S(=O)(=O)c1ccc(CNC(=O)c3ccc4nccn4c3)cc1)C2 [Example 259, N-[[4-[(6-acetyl-2,6-diazaspiro[3.3]heptan-2-yl)sulfonyl]phenyl]methyl] imidazo[1,2-a]pyridine-6-carboxamide] | 37.8 | 70 | – | – | –
O=C(NCc1ccc(S(=O)(=O)C2CCN(C3COC3)CC2)cc1)c1cnc2nccn2c1 [Example 118, Imidazo[1,2-a]pyrimidine-6-carboxylic acid 4-(1-oxetan-3-yl-piperidine-4-sulfonyl)-benzylamide] | 4.1 | 121 | – | – | –
CC(=O)N1C[C@@H]2C[C@H]1CN2S(=O)(=O)c1ccc(CNC(=O)c2ccc3nccn3c2)cc1 (racemic) [Example 163, cis-Imidazo[1,2-a]pyridine-6-carboxylic acid 4-(5-acetyl-2,5-diaza-bicyclo[2.2.1]heptane-2-sulfonyl)-benzylamide] | 81.5 | 58.1 | – | – | –
cis-Imidazo[1,2- a]pyridine-6-carboxylic acid 4-[(3aR,6aS)- (tetrahydro-furo[3,4- c]pyrrol-5-yl)sulfonyl]- benzylamide [Example 71] | 16.7 | – | 6.4 | – | –
O=C(NCc1ccc(S(=O)(=O)N2C[C@@H]3CC(F)(F)C[C@@H]3C2)cc1)c1ccc2nccn2c1 [Example 70, cis-Imidazo[1,2-a]pyridine-6-carboxylic acid 4-((3aR,6aS)-5,5-difluoro-hexahydro-cyclopenta[c]pyrrole-2-sulfonyl)-benzylamide] | 6.4 | 8 | – | – | –
CN(C)[C@H]1CCN(S(=O)(=O)c2ccc(CNC(=O)c3ccc4nccn4c3)cc2)C1 [Example 108, Imidazo[1,2-a]pyridine-6-carboxylic acid 4-((S)-3-dimethylamino-pyrrolidine-1-sulfonyl)-benzylamide] | 25.6 | 5.3 | – | – | –
O=C(NCc1ccc(S(=O)(=O)N2CCCCC2)cc1)c1cc2ccncc2o1 [Example 5, Furo[2,3-c]pyridine-2-carboxylic acid 4-(piperidine-1-sulfonyl)-benzylamide] | 9.4 | 29.2 | – | – | –
CC(=O)N1CCN(S(=O)(=O)c2ccc(CNC(=O)c3ccc4nccn4c3)cc2)CC1 [Example 93, Imidazo[1,2-a]pyridine-6-carboxylic acid 4-(4-acetyl-piperazine-1-sulfonyl)-benzylamide] | 22.4 | 13 | – | – | –
CC(C)N1CCC(S(=O)(=O)c2ccc(CNC(=O)c3cc4cnccc4[nH]3)cc2)CC1 [Example 340, N-[[4-[(1-isopropyl-4-piperidyl)sulfonyl]phenyl]methyl]-1H-pyrrolo[3,2-c]pyridine-2-carboxamide] | 88.5 | 26.6 | – | – | –
CCN1CCC([S+]([O-])c2ccc(CNC(=O)c3cc4ccncc4o3)cc2)CC1 (stereo not shown) [Example 380, N-[[4-[(1-ethyl-4-piperidyl)sulfinyl]phenyl]methyl]furo[2,3-c]pyridine-2-carboxamide] | 68.3 | 499 | – | – | –
O=C(NCc1ccc(S(=O)(=O)N2CCN(C3COC3)CC2)cc1)c1cnc2[nH]ncc2c1 [Example 117, 1H-Pyrazolo[3,4-b]pyridine-5-carboxylic acid 4-(4-oxetan-3-yl-piperazine-1-sulfonyl)-benzylamide] | 229 | 44.5 | – | – | –
O=C(NCc1ccc(S(=O)(=O)[C@@H]2CCOC2)cc1)c1cnc2nccn2c1 [Example 226, N-[[4-[(3R)-tetrahydrofuran-3-yl)sulfonylphenyl]methyl] imidazo[1,2-a]pyrimidine-6-carboxamide] | 8.88 | 457 | – | – | –
CC(C)(C)OC(=O)N1CCCC2(C1)CN(S(=O)(=O)c1ccc(CNC(=O)c3ccc4nccn4c3)cc1)C2 [Example 238, tert-butyl 2-[4-[(imidazo[1,2-a]pyridine-6-carbonylamino)methyl]phenyl] sulfonyl-2,8-diazaspiro[3.5]nonane-8-carboxylate] | 11.8 | 1.83 | – | – | –

Compound | IC50 (NAMPT; read-out: Biochemical (IC50)) [nM] | IC50 (A2780 cells; [1]) [nM] | IC50 (A2780 cells; A2780 cells, 72 hours, SRB) [nM] | IC50 (NAMPT; Biochemical (IC50)) [nM] | IC50 (A2780 cells; Homo sapiens, A2780, 72 h) [nM]
O=C(NCc1ccc(S(=O)(=O)N2CC[C@H]3C[C@H]32)cc1)c1ccc2nccn2c1 (racemic) [Example 166, cis-Imidazo[1,2-a]pyridine-6-carboxylic acid 4-(2-aza-bicyclo[3.1.0]hexane-2-sulfonyl)-benzylamide] | 17.2 | 9.6 | – | – | –
O=C(NCc1ccc(S(=O)(=O)C2CCN(CC(F)(F)F)CC2)cc1)c1cnc2[nH]ncc2c1 [Example 208, N-[[4-[[1-(2,2,2-trifluoroethyl)-4-piperidyl]sulfonyl]phenyl]methyl]-1H-pyrazolo[3,4-b]pyridine-5-carboxamide] | 47.7 | 10.8 | – | – | –
1H-Pyrazolo[3,4- b]pyridine-5-carboxylic acid 4-(4-hydroxymethyl- piperidine-1-sulfonyl)- benzylamide [Example 174] | 152 | – | 84.4 | – | –
O=C(NCc1ccc(S(=O)(=O)[C@@H]2CCOC2)cc1)c1ccc2nccn2c1 [Example 227, N-[[4-((3R)-tetrahydrofuran-3-yl]sulfonylphenyl]methyl] imidazo[1,2-a]pyridine-6-carboxamide] | 51.3 | 98.4 | – | – | –
O=C(NCc1ccc(S(=O)(=O)N2CCCCC2)cc1)c1ccc2nccn2n1 [Example 16, Imidazo[1,2-b]pyridazine-6-carboxylic acid 4-(piperidine-1-sulfonyl)-benzylamide] | 22 | 163 | – | – | –
O=C(NCc1ccc(S(=O)(=O)N2CCC3(CCCN3)C2)cc1)c1ccc2nccn2c1 (stereo not shown) [Example 257, N-[[4-(1,7-diazaspiro[4.4]nonan-7-ylsulfonyl)phenyl]methyl] imidazo[1,2-a]pyridine-6-carboxamide] | 46.8 | – | 26.5 | – | –
CC(C)N1CCC([S+]([O-])c2ccc(CNC(=O)c3ccc4nccn4c3)cc2)CC1 (stereo not shown) [Example 362, N-[[4-[(1-isopropyl-4-piperidyl)sulfinyl]phenyl]methyl]imidazo[1,2-a]pyridine-6-carboxamide] | 35 | 22.1 | – | – | –
CCN1CCC([S+]([O-])c2ccc(CNC(=O)N3Cc4ccncc4C3)cc2)CC1 (stereo not shown) [Example 385, N-[[4-[(1-ethyl-4-piperidyl)sulfinyl]phenyl]methyl]-1,3-dihydropyrrolo[3,4-c]pyridine-2-carboxamide] | 30.2 | 56.7 | – | – | –
O=C(NCc1ccc(S(=O)(=O)N2CC3(CCOC3)C2)cc1)c1ccc2nccn2c1 [Example 220, N-[[4-(6-oxa-2-azaspiro[3.4]octan-2-ylsulfonyl)phenyl]methyl] imidazo[1,2-a]pyridine-6-carboxamide] | 25 | 16.8 | – | – | –
CC(C)CN1CCC([S+]([O-])c2ccc(CNC(=O)c3cc4cnccc4[nH]3)cc2)CC1 (stereo not shown) [Example 191, N-[[4-[(1-isobutyl-4-piperidyl)sulfinyl]phenyl]methyl]-1H-pyrrolo[3,2-c]pyridine-2-carboxamide] | 26.3 | 5.6 | – | – | –
C[C@@H]1CN(S(=O)(=O)c2ccc(CNC(=O)c3cc4ccncc4o3)cc2)C[C@H](C)N1 [Example 61, cis-Furo[2,3-c]pyridine-2-carboxylic acid 4-((3R,5S)-3,5-dimethyl-piperazine-1-sulfonyl)-benzylamide] | 21.5 | 23.3 | – | – | –
O=C(NCc1ccc(S(=O)(=O)N2CCN(C3CCCCC3)CC2)cc1)c1ccc2nccn2c1 [Example 40, Imidazo[1,2-a]pyridine-6-carboxylic acid 4-(4-cyclohexyl-piperazine-1-sulfonyl)-benzylamide] | 17.1 | 6.9 | – | – | –
CC(=O)N1CCC(S(=O)(=O)c2ccc(CNC(=O)c3cnc4[nH]ncc4c3)cc2)C1 (stereo not shown) [Example 348, N-[[4-(1-acetylpyrrolidin-3-yl)sulfonylphenyl]methyl]-1H-pyrazolo[3,4-b]pyridine-5-carboxamide] | 2000 | 2000 | – | – | –
O=C(NCc1ccc(S(=O)(=O)N2CCC23COC3)cc1)c1cnc2[nH]ncc2c1 [Example 285, N-[[4-(6-oxa-1-azaspiro[3.3]heptan-1-ylsulfonyl)phenyl]methyl]-1H-pyrazolo[3,4-b]pyridine-5-carboxamide] | 206 | 2000 | – | – | –
CC(C)(C)OC(=O)N1CCC2(CCCN(S(=O)(=O)c3ccc(CNC(=O)c4ccc5nccn5c4)cc3)C2)C1 (racemic) [Example 102, 7-(4-{[(Imidazo[1,2-a]pyridine-6-carbonyl)-amino]-methyl}-benzenesulfonyl)-2,7-diaza-spiro[4.5]decane-2-carboxylic acid tert-butyl ester] | 34.5 | 5.1 | – | – | –
CN1C2COCC1CN(S(=O)(=O)c1ccc(CNC(=O)c3ccc4nccn4c3)cc1)C2 (racemic) [Example 162, cis-Imidazo[1,2-a]pyridine-6-carboxylic acid 4-(9-methyl-3-oxa-7,9-diaza-bicyclo[3.3.1]nonane-7-sulfonyl)-benzylamide] | – | – | – | 122 | 59.8
